According to patent US12116356B2, “N-heterocyclic five-membered ring-containing capsid protein assembly inhibitor, pharmaceutical composition thereof, and use thereof” (CHIA TAI TIANQING PHARMACEUTICAL GROUP CO., LTD., priority 2018, dated 2024):
≈ marks a conversion by molar mass, not a printed value.

Key:
HBV DNA in HepAD38 cells = assay: In vitro cell HBV DNA inhibitory activity (anti-HBV activity) in HepAD38 cells; type: cell-based; settings: Hepatitis B virus, 144 h; anti-HBV activity in HepAD38 cells, 6 days treatment, intracellular capsid HBV DNA by qPCR; read-out: EC50
Protocol: (§1) A bottle of HepG2.2.15 or HepAD38 cells in good exponential growth state was taken, washed once by adding 5 mL PBS, and then thereto was added 3 mL trypsin. After digesting at room temperature for 5 min, 2 mL trypsin was discarded, and then the sample was placed in a cell culture incubator and digested for 10 min. The cells were taken out from time to time and observed under a microscope (whether the cells were individually round and there was no adhesion between the cells). 10 mL complete medium was added to terminate the digestion. After pipetting into a single cell suspension, 10 μL of the cell suspension was taken out for cell counting with a cell counter, and then diluted with a complete medium and adjusted to a cell density of 1*10^5 cells/mL. Then the cell suspension was seeded at 1 mL/well in a 24-well plate with a multi-channel pipette (the 24-well plate was coated with 50 μg/mL Collagen I solution in advance), and cultured in a constant temperature CO2 incubator for 48 h.
(§2) Different compounds dissolved in DMSO were subjected to two-fold gradient dilution (10 concentrations in total) with complete medium. The compound was added, and fresh medium containing the compound was used to replace the spent medium every 72 hours. The cells were treated with the compound for 6 days. After the supernatant was siphoned off, 300 μL lysate (10 mM Tris-HCl, 1 mM EDTA, and 1% NP-40) was added to each well. After lysing at room temperature for 10 min, DNA was extracted, and HBV DNA in the intracellular viral capsid was measured by real-time fluorescence quantitative PCR. The inhibition rate was calculated based on the Ct value, and the EC50 value was calculated by the four-parameter method.

[1] = test system: HBV DNA in HepG2.2.15 cells; assay: In vitro cell HBV DNA inhibitory activity (anti-HBV activity) in HepG2.2.15 cells; type: cell-based; settings: Hepatitis B virus, 144 h; anti-HBV activity in HepG2.2.15 cells, 6 days treatment, intracellular capsid HBV DNA by qPCR; read-out: EC50
Protocol: as §1, §2

[2] = In vitro cytotoxicity (CCK-8) in HepAD38 cells; type: cell-based; settings: human
Protocol: (§3) A bottle of HepG2.2.15 or HepAD38 cells in good exponential growth state was taken, washed once by adding 5 mL PBS, and then thereto was added 3 mL trypsin. The sample was digested in a cell culture incubator, and taken out from time to time and observed under a microscope. When the cells just fell off, 1 mL trypsin was discarded. The residual liquid was placed in a cell culture incubator at 37° C. and digested for 8-15 min. The cells were taken out and observed under a microscope (whether the cells were individually round and there was no adhesion between the cells). 5 mL MEM medium was added for cell resuspension. The cells were then subjected to cell counting with a cell counter, diluted with a complete medium, and adjusted to a cell density of 2*10^5 cells/mL. Then the cells were seeded at 100 μL/well in a 96-well plate with a multi-channel pipette (the 96-well plate was coated with 50 μg/mL Collagen I solution in advance), and cultured in a constant temperature CO2 incubator for 24 h. The cells were treated by drug administration, and fresh medium containing the compound was used to replace the spent medium every 3 days. To control wells was added a drug-free medium containing 0.5% DMSO, and a control well containing a common medium was set up. 6 days after the administration, CCK-8 was added at 10 μL/well. After 1 to 2 hours, the absorbance was detected with microplate reader at 450 nm, and the inhibition rate and the CC50 were calculated.

[3] = In vitro cytotoxicity (CCK-8) in HepG2.2.15 cells; type: cell-based; settings: human
Protocol: as §3

[4] = Stability of rat liver microsomes in vitro; type: in vitro ADME
Protocol: (§4) 300 μL of a final incubation system contains 30 μL of liver microsomes (protein concentration: 0.15 mg/mL), 30 μL NADPH+MgCl2, 3 μL substrate (formulated with acetonitrile), and 237 μL PBS buffer. Duplicate incubation systems of 0.3 mL each were formulated for each species. A total volume of 270 μL of a uniformly mixed solution of the substrate and the enzyme was formulated in each tube, the solution and NADPH were pre-incubated at 37° C. for 5 minutes, respectively. Then 30 μL of the mixed solution of NADPH+MgCl2 was added for reaction. 50 μL of the reaction solution was taken out at 0, 10, 30, and 60 mins, and the reaction was terminated with 300 μL of ice acetonitrile containing an internal standard.
(§5) Sample pre-treatment: To 50 μL of the incubated sample was added 300 μL of ice acetonitrile containing diazepam as an internal standard and then precipitated. After vortexing for 5 minutes, the sample was centrifugated (12000 rpm, 4° C.) for 10 minutes. 75 μL of the supernatant was pipetted into a 96-well plate, and then diluted with 75 μL ultrapure water and mixed uniformly. 0.5 μL of the resulting solution was injected and analyzed by LC-MS/MS.

[5] = Stability of mouse liver microsomes in vitro; type: in vitro ADME
Protocol: as §4, §5

[6] = Solubility in PBS buffer at pH 7.4; type: physicochemical; settings: aqueous buffer, PBS buffer pH 7.4, 25° C.
Protocol: […] After standing at 25° C. for 16 hours, the system was centrifugated (12000 rpm, room temperature) for 10 min. 20 μL of the supernatant was taken out, and the reaction was terminated with 400 μL of acetonitrile containing an internal standard (diazepam 20 ng/mL). 30 μL of the supernatant was pipetted, and 150 μL of 50% acetonitrile aqueous solution was added thereto for dilution and mixed uniformly. 0.5 μL of the resulting solution was injected for analysis.

[7] = Stability of human liver microsomes in vitro; type: in vitro ADME
Protocol: as §4, §5

Row | Structure (SMILES) | EC50 (HBV DNA in HepAD38 cells) [nM] | EC50 [1] [nM] | CC50 at 6 days [2] [nM] | CC50 at 6 days [3] [nM] | Remaining (%) at 60 min [4] [%] | Remaining (%) at 60 min [5] [%] | solubility at 16 h [6] [µM] | Remaining (%) at 60 min [7] [%]
1 | Cc1c(C(=O)Nc2ccc(F)c(C#N)c2)c(C)n(C)c1C(=O)C(=O)N[C@H](C)C(F)(F)F [Example 11] | < 10 | < 10 | > 100000 | > 100000 | 56.8 | 47.7 | 7.5 (≈ 3.29 µg/mL) | 
2 | Cc1c(C(=O)Nc2ccc(F)c(C#N)c2)c(Cl)n(C)c1C(=O)C(=O)NC(C)(C)C [Example 17, 5-(2-(tert-butylamino)-2-oxoacetyl)-2-chloro-N-(3-cyano-4-fluorophenyl)-1,4-dimethyl-1H-pyrrole-3-carboxamide] |  | 10 to 50 | > 100000 | > 100000 | 44.9 | 47.4 |  | 
3 | Cc1c(C(=O)Nc2ccc(F)c(C#N)c2)c(C)n(C)c1C(=O)C(=O)NC1(C)COC1 [Example 6, N-(3-cyano-4-fluorophenyl)-1,2,4-trimethyl-5-(2-(3-methyloxetan-3-ylamino)-2-oxoacetyl)-1H-pyrrole-3-carboxamide] | 10 to 50 | 10 to 50 | > 100000 | > 100000 | 74.9 | 55 | 81.8 (≈ 33.7 µg/mL) | 79.1
4 | C#CCNC(=O)C(=O)c1c(C)c(C(=O)Nc2ccc(F)c(C#N)c2)c(C)n1C [Example 1, N-(3-cyano-4-fluorophenyl)-1,2,4-trimethyl-5-(2-oxo-2-(prop-2-yn-1-ylamino)acetyl)-1H-pyrrole-3-carboxamide] | 10 to 50 | 10 to 50 | > 100000 | > 100000 | 44 |  |  | 69
5 | Cc1c(C(=O)Nc2ccc(F)c(N)c2)c(C)n(C)c1C(=O)C(=O)N[C@@H](C)C(F)(F)F [Example 42, (S)—N-(3-amino-4-fluorophenyl)-1,2,4-trimethyl-5-(2-oxo-2-((1,1,1-trifluoroprop-2-yl)amino)acetyl)-1H-pyrrole-3-carboxamide] | 10 to 50 | < 10 |  | > 100000 | 85.3 | 61.9 |  | 102
6 | Cc1c(C(=O)Nc2ccc(F)c(C#N)c2)c(Br)n(C)c1C(=O)C(=O)NC(C)(C)C [Example 15, 2-bromo-5-(2-(tert-butylamino)-2-oxoacetyl)-N-(3-cyano-4-fluorophenyl)-1,4-dimethyl-1H-pyrrole-3-carboxamide] | < 10 | 10 to 50 | > 100000 |  |  |  | 4.9 (≈ 2.27 µg/mL) | 
7 | Cc1c(C(=O)Nc2ccc(F)c(C#N)c2)c(C)n(C)c1C(=O)C(=O)NC(C)(C)CO [Example 8, N-(3-cyano-4-fluorophenyl)-5-(2-((1-hydroxy-2-methylpropan-2-yl)amino)-2-oxoacetyl)-1,2,4-trimethyl-1H-pyrrole-3-carboxamide] | < 10 | < 10 | > 100000 | > 100000 | 52.0 |  | 80.9 (≈ 33.5 µg/mL) | 70.6
8 | Cc1c(C(=O)Nc2ccc(F)c(C#N)c2)c(C)n(C)c1C(=O)C(=O)NC1(C)CS(=O)(=O)C1 [Example 45, N-(3-cyano-4-fluorophenyl)-1,2,4-trimethyl-5-(2-((3-methyl-1,1-dioxidothietan-3-yl)amino)-2-oxoacetyl)-1H-pyrrole-3-carboxamide] | 10 to 50 | < 10 |  |  | 47 |  |  | 73
9 | Cc1c(C(=O)Nc2ccc(F)c(C#N)c2)c(C)n(C)c1C(=O)C(=O)NC1CCOC1 (centres unmarked) [Example 7, N-(3-cyano-4-fluorophenyl)-1,2,4-trimethyl-5-(2-oxo-2-((tetrahydrofuran-3-yl)amino)acetyl)-1H-pyrrole-3-carboxamide] | < 10 | 10 to 50 | > 100000 | > 100000 | 70.5 | 81.6 | 19.8 (≈ 8.17 µg/mL) | 83.8
10 | COC(=O)C(C)(C)NC(=O)C(=O)c1c(C)c(C(=O)Nc2ccc(F)c(C#N)c2)c(C)n1C [Example 9, methyl (2-(4-((3-cyano-4-fluorophenyl)carbamoyl)-1,3,5-trimethyl-1H-pyrrole-2-yl)-2-oxoacetylamino)-2-methylpropionate] | < 10 | 10 to 50 | > 100000 | > 100000 |  |  | 9.6 (≈ 4.25 µg/mL) | 
11 | Cc1c(C(=O)Nc2ccc(F)c(C#N)c2)c(C)n(C)c1C(=O)C(=O)NC1(CO)CC1 [Example 27, N-(3-cyano-4-fluorophenyl)-5-(2-((1-(hydroxymethyl)cyclopropyl)amino)-2-oxoacetyl)-1,2,4-trimethyl-1H-pyrrole-3-carboxamide] | 10 to 50 | 10 to 50 | > 100000 | > 100000 |  |  |  | 
12 | Cc1c(C(=O)Nc2ccc(F)c(C#N)c2)c(Cl)n(C)c1C(=O)C(=O)N[C@H](C)C(F)(F)F [Example 30, (R)-2-chloro-N-(3-cyano-4-fluorophenyl)-1,4-dimethyl-5-(2-oxo-2-((1,1,1-trifluoroprop-2-yl)amino)acetyl)-1H-pyrrole-3-carboxamide] | 10 to 50 | < 10 | > 100000 | > 100000 |  |  |  | 
13 | Cc1c(C(=O)Nc2ccc(F)c(C#N)c2)c(C)n(C)c1C(=O)C(=O)NC12CC(C1)C2 [Example 2, 5-(2-(Bicyclo[1.1.1]pentan-1-ylamino)-2-oxoacetyl)-N-(3-cyano-4-fluorophenyl)-1,2,4-trimethyl-1H-pyrrole-3-carboxamide] | < 10 | < 10 | > 100000 |  |  |  | 22.1 (≈ 9.03 µg/mL) | 
14 | Cc1c(C(=O)Nc2ccc(F)c(C#N)c2)c(Cl)n(C)c1C(=O)C(=O)N[C@@H](C)C(F)(F)F [Example 29, (S)-2-chloro-N-(3-cyano-4-fluorophenyl)-1,4-dimethyl-5-(2-oxo-2-((1,1,1-trifluoroprop-2-yl)amino)acetyl)-1H-pyrrole-3-carboxamide] | < 10 | 10 to 50 | > 100000 | > 100000 | 88.7 | 99.2 |  | 99.6
15 | Cc1c(C(=O)Nc2ccc(F)c(C#N)c2)c(C)n(C)c1C(=O)C(=O)N[C@H]1CCOC1 [Example 22] | 10 to 50 | 10 to 50 | > 100000 | > 100000 |  |  |  | 
